The compounds below were run on Gryllus bimaculatus (assay: Induction of paralysis in Gryllus bimaculatus assessed as drug level causing paralysis per gram of cricket after 5 mins).
Format: functional

| Structure (SMILES) | ED50 |
| --- | --- |
| NCCCC[C@H](N)C(=O)NCCCNCCCNCCCCNC(=O)[C@H](CC(N)=O)NC(=O)Cc1cc(=O)oc2cc(O)ccc12 | 1.05 nmol |
| NCCCC[C@H](N)C(=O)NCCCNCCCNCCCCNC(=O)[C@H](CC(N)=O)NC(=O)c1cc2ccc(O)cc2oc1=O | 2.59 nmol |
| NCCCC[C@H](N)C(=O)NCCCNCCCNCCCCNC(=O)[C@H](CC(N)=O)NC(=O)Cc1ccc(O)cc1O | 0.175 nmol |
| NCCCCNCC(=O)NCCCNCCCNCCCCNC(=O)[C@H](CC(N)=O)NC(=O)Cc1cc(=O)oc2cc(O)ccc12 | 0.136 nmol |
| NCCCCNCC(=O)NCCCNCCCNCCCCNC(=O)[C@H](CC(N)=O)NC(=O)c1cc2ccc(O)cc2oc1=O | 5.69 nmol |

— ChEMBL document CHEMBL1139337, “Syntheses and biological activities of fluorescent-labeled analogs of acylpolyamine toxin NPTX-594 isolated from the venom of Madagascar Joro spider” (2009)
